Patent US11241436B2, “Autophagy inducers for treatment of CNS conditions” (Northwestern University, priority 2017, dated 2022)
Like-named read-outs stand apart in the source and are kept apart here.

What was measured:
[1] = system: WT primary cortical neurons; assay: TUNEL assay of primary cortical neurons treated with conditioned media of APP-HEK293 cells; type: cell-based, mouse
Description: Nuclei were stained with DAPI. Scale bar, 100 μm. N=10 fields (each field containing 20-30 neurons).
TUNEL assays. APP-HEK293 cells were cultured in 6-well dishes for 24 h and then the media was replaced with neuronal culture media. After 48 h, conditioned media was collected and used to treat primary cortical neurons (12 DIV) cultured on poly-L-lysine coated slides for another 24 h. Apoptotic neurons were detected by the In Situ Cell Death Detection Kit, TMR red (Roche, cat. #12156792910) according to the manufacturer's instructions. Nuclei were stained using the mounting medium containing DAPI (Vectashield). Quantification of red TUNEL-positive neurons was done using the NIS Elements software.

5XFAD mice = assay: Contextual fear conditioning test of 5XFAD mice; type: in vivo, mouse; details: Rg2 for 4 months
Description: Fear conditioning training exposed mice to 2-s electrical foot shocks separated by 1-min interval through a grid floor at the bottom of the chamber. On the following day, the mice were returned to the same chamber and their movements were recorded with a video camera to test for contextual conditioning. Freezing (very low levels of movement) in the training environment indicate context-associated fear. WT mice without APP transgene were used as negative control in the above studies. N=8. *, P<0.05; **, P<0.01, t test.

[2] = mouse
[3] = system: HeLa cell lines expressing HTT

Compound	apoptotic cell death of neurons ([1]; conditioned media from ML246-treated APP-HEK293 cells vs vehicle-treated)	ML246-mediated reduction of apoptotic neuronal death ([1]; siRNA knockdown of ATG7 in APP-HEK293 cells)	freezing responses (contextual fear memory) (5XFAD mice)	percentage bound by plasma protein ([2]; 10 μg/ml)	percentage bound by plasma protein ([2]; 50 μg/ml)	percentage bound by plasma protein ([2]; 100 μg/ml)	cell viability [3]
N=c1c2c(-c3ccccc3)c(-c3ccccc3)n(Cc3ccccc3)c2ncn1[C@H]1CC[C@H](O)CC1 [ML246]	lower level	reversed					
CC(C)=CCC[C@](C)(O)[C@H]1CC[C@]2(C)[C@@H]1[C@H](O)C[C@@H]1[C@@]3(C)CC[C@H](O)C(C)(C)[C@@H]3[C@@H](O[C@@H]3O[C@H](CO)[C@@H](O)[C@H](O)[C@H]3O[C@@H]3O[C@@H](C)[C@H](O)[C@@H](O)[C@H]3O)C[C@]12C [Rg2, ginsenoside Rg2]			rescued the freezing responses	approximately 42%	~24%	~15%	grew as well as the control cells
